The subject of one data set is Saccharomyces cerevisiae. The following applies: stated as background; cited from earlier work.
The subject of the next data set is Escherichia coli. The following applies: cited from earlier work; for antibacterial activity against Escherichia coli: benzaldehyde derivatives, stated as demonstrated; for antimicrobial activity against Escherichia coli: stated as known.
A short description of data set [1]: in vitro biochemical assay for beta-etherase activity on fluorescent substrate MUAV (4MU formation). The following applies: for beta-etherase activity on the MUAV substrate (in words): recombinant polypeptide expressed in E. coli; for total activity (beta-etherase): E. coli cell extracts expressing the protein, 0.1 mM MUAV substrate. The text has this:
The model substrate synthesis 150 for use in the biochemical screening for selective activity can be outsourced through a contract research organization (CRO). The enzyme discovery effort can initially be focused on identifying potential beta-etherase candidate genes identified through bioinformatic methods. […] The fluorescent substrate α-O-(β-methylumbelliferyl) acetovanillone (MUAV), for example, can be used in in vitro assays to identify beta-etherase function (Acme Biosciences, Mt. View, Calif.). The formation of 4 methylumbelliferone (4MU) upon hydrolysis of the aryl ether bond can be monitored by fluorescence, for example, at λex=365 nm and λem=450 nm (or 460 nm).
The enzyme screening 155 is done to identify novel etherases 160. […] Expression of the beta-etherase genes can be done in 5 ml or 25 ml samples of the recombinant E. coli strains in LB medium using induction with IPTG. Following induction, and cell harvest, cell pellets can be lysed using the BPER (Invitrogen) cell lysis system. […] The formation of 4 methylumbelliferone (4MU) upon hydrolysis of the aryl ether bond in MUAV can be monitored by fluorescence at λex=365 nm and λem=460 nm, and can provide quantitative measurement of beta-etherase function. Cell extracts of E. coli transformed with the S. paucimobilis ligE and ligF genes can be the assay positive controls. Test or unknown samples can include, for example, E. coli strains expressing putative beta-etherase genes from N. aromaticovorans.
This example describes a method for gene expression in E. coli, as well as beta-etherase biochemical assays. Expression of known and putative beta-etherase genes was performed using 5 ml cultures of the recombinant E. coli strains described herein in Luria Broth medium by induction of gene expression using isopropylthiogalactoside (IPTG) to a final concentration of 0.1 mM. Following induction, and cell harvest, the cells were disrupted using either sonication or the BPER (Invitrogen) cell lysis system.
In vitro reactions were performed in a total volume of 200 ul and contained: 25 mM TrisHCl pH 7.5; 0.5 mM dithiothreitol; 1 mM glutathione; 0.05 mM or 0.1 mM MUAV; 10 ul of clarified cell extract used to initiate the reactions. Following incubation for 2.5 hours at room temperature, a 50 ul sample of the reactions was terminated using 150 uL of 300 mM glycine/NaOH buffer pH 9. The formation of 4 methylumbelliferone (4MU) upon hydrolysis of the aryl ether bond was monitored by the increase in fluorescence at λex=360 nm and λem=450 nm using a Spectramax UV/visible/fluorescent spectrophotometer.
The total protein concentrations of the cell lysates were determined using the BCA reagent system for protein quantification (Pierce).
Induction might be also performed using IPTG concentrations in the range of 0.01-1 mM. Cell disruption might be also performed using toluene permeabilization, French, pressure techniques, or using multiple freeze/thaw cycles in conjunction with lysozyme. Assay conditions might be varied to include TrisHCl at 10-150 mM concentrations and in the pH range of 6.5-8.5; 0-2 mM dithiothreitol; 0.05-2 mM glutathione; 0.01-5 mM MUAV substrate; 22-42° C. reaction temperatures. The biochemical assay might be performed as a fixed time point assay with reaction times ranging from 5 minutes-12 hours, or performed continuously without quenching with glycine/NaOH buffer to extract enzyme kinetic parameters.

The source of these data is patent US20120196334A1, “LIGF-TYPE ENZYMES FOR BIOCONVERSION OF LIGNIN-DERIVED COMPOUNDS” (priority 2010, published 2012).

Regarding `O=C(O)/C=C/c1ccc(O)cc1` [p-coumaric acid], in the data set with Saccharomyces cerevisiae, the “antifungal activities against the yeast Saccharomyces cerevisiae” value (“antifungal activities” for short) is “significant antifungal activities”.

Regarding `O=Cc1ccccc1O` [2-hydroxybenzaldehyde], in the data set on Escherichia coli, the “antibacterial activity against Escherichia coli” value is “antibacterial activity”.

As for `COc1cc(C(=O)O)ccc1O` [vanillic acid], the “antifungal activities” value in the data set with Saccharomyces cerevisiae is “significant antifungal activities”.

In the case of `O=C(O)/C=C/c1cccc(O)c1` [m-coumaric acid], the “antifungal activities” value with Saccharomyces cerevisiae is recorded as “significant antifungal activities”.

In the case of `O=Cc1ccc(O)cc1O` [2,4-dihydroxybenzaldehyde], in the data set on Escherichia coli, the “antibacterial activity against Escherichia coli” value is recorded as “antibacterial activity”.

Regarding `COc1cc(C=O)ccc1O` [vanillin], the “antimicrobial activity against Escherichia coli” value in the data set on Escherichia coli is reported as “antimicrobial activity”.

Regarding `COc1cc(CCC(C)=O)ccc1O` [vanillylacetone], the “antifungal activities” value in the data set on Saccharomyces cerevisiae is on record as “significant antifungal activities”.

As to `O=Cc1cc(O)ccc1O` [2,5-dihydroxybenzaldehyde], the “antibacterial activity against Escherichia coli” value in the data set with Escherichia coli is “antibacterial activity”.

Turning to `COc1ccc(C=O)cc1OC` [Veratraldehyde], the “antifungal activities” value in the data set with Saccharomyces cerevisiae was “significant antifungal activities”.

For `O=Cc1ccc(O)cc1` [4-hydroxybenzaldehyde], in the data set on Escherichia coli, the “antimicrobial activity against Escherichia coli” value is reported as “antimicrobial activity”.

Regarding `COc1cccc(C=O)c1O` [2-hydroxy-3-methoxybenzaldehyde], the “antibacterial activity against Escherichia coli” value in the data set on Escherichia coli is on record as “antibacterial activity”.

As to `COc1cc(O)cc(OC)c1C=O` [4-hydroxy-2,6-dimethoxybenzaldehyde], the “antibacterial activity against Escherichia coli” value with Escherichia coli is given as “antibacterial activity”.

Regarding `O=C(O)/C=C/c1ccccc1O` [o-coumaric acid], the “antifungal activities” value with Saccharomyces cerevisiae is “significant antifungal activities”.

Turning to `O=Cc1c(O)cc(O)cc1O` [2,4,6-trihydroxybenzaldehyde], the “antibacterial activity against Escherichia coli” value in the data set on Escherichia coli is listed as “antibacterial activity”.

As for `O=Cc1ccc(O)c(O)c1O` [2,3,4-trihydroxybenzaldehyde], the “antibacterial activity against Escherichia coli” value in the data set on Escherichia coli is “antibacterial activity”.

As for `COc1cc(C=O)cc(OC)c1O` [syringaldehyde], in the data set on Escherichia coli, the “antimicrobial activity against Escherichia coli” value was “antimicrobial activity”.

With `O=Cc1ccc(CO)o1` [5-hydroxymethylfurfural], the “antimicrobial activity against Escherichia coli” value in the data set with Escherichia coli is listed as “antimicrobial activity”.

For the molecule `O=Cc1cccc(O)c1O` [2,3-dihydroxybenzaldehyde], in the data set with Escherichia coli, the “antibacterial activity against Escherichia coli” value is reported as “antibacterial activity”.

Consider `O=Cc1ccco1` [furfural], for which the “antimicrobial activity against Escherichia coli” value in the data set on Escherichia coli is given as “antimicrobial activity”.

Regarding `O=C(O)C=Cc1ccccc1` [cinnamic acid], in the data set with Saccharomyces cerevisiae, the “antifungal activities” value was “significant antifungal activities”.

Consider `COc1ccc(O)c(C=O)c1` [2-hydroxy-5-methoxybenzaldehyde], for which the “antibacterial activity against Escherichia coli” value in the data set with Escherichia coli is on record as “antibacterial activity”.

B1: ABD26530.1: Novosphingobium aromaticivorans putative beta-etherase polypeptide LigF-1 (protein)
chain: MVIPLGEDNTIMLKLYSFGPAANSMKPLLTVFEKGLDVEKHRLDPAKFEHHTDWFKAINPRGQVPALVDGDKVVTESTVICEYLEDEYPTEVALRPADSFGKAQMRIWTKWVDEYFCWCVSTIGWHRYVGNMVKSLSDAEFEEKVKAIPVIEQQVKWRRAREGFPQDMLDEEMRKIAYSVRKLDDHLADHEWLVPGQYTLADICNFAIANGMQFGFAELVNKQDTPHLVRWIEQINERPAVKQMFAQVELEKLGPRE
On to B1, for which the “beta-etherase activity on the MUAV substrate (in words)” value (“beta-etherase activity … (in words)” below) in data set [1] is reported as “beta-etherase activity”.

B2: LigF2: Novosphingobium aromaticivorans putative beta-etherase, glutathione S-transferase-like polypeptide LigF-2 (protein)
chain: MALKYYHAEPLANSLKSMVPLKEKGLAYESIYVDLHKFEQHQPWFTAINPEGQVPVLDHDGTIITHTTVINEYLEDAFPDAQPADAPLRPRDPVGAARMRYWNKFIDEHVMNYVSMHGWHRMVGVIARNIASGDFEKLLESIPLPDQRKKWATARSGFSEADLANATAKIEYALDKVEKQLGETKWLAGDTYTLADINFYSHCGAMVERMFPEMEVARRAPRLCEWRDRVAARPAVAEALKSEDRTAPGLRVWSGEVR
Regarding B2, in data set [1], the “total activity (beta-etherase)” value is given as 1206 rfu/ug and the “beta-etherase activity … (in words)” value is “beta-etherase activity”. Besides, the “efficiency relative to S. paucimobilis LigF protein” value in data set [1] (MUAV substrate, compared with S. paucimobilis LigF) is reported as “approximately 2 fold”.

B3: ABD27309.1: Novosphingobium aromaticivorans putative beta-etherase polypeptide LigF-3 (protein)
chain: MDEVSLYHWEPNANSGKPMLALMEKGVPFSSHYIDMLQFDQHKPEYLAINPQGTIPAMTHNGQVLTESTAIMEYVNDRFDGPDLMPADAQDRWRVRWWMKFMDQWLGPSFSMIGWSVFVGPMVRQRDPAELAAAIDRIPLPERRTAWRKAINGDFSESEMAESRRRVGLGIAKLEEELGKRPYVGSNQYSLADINIFNSTYSLPISQPDLAGKDRTPNIMRWLKRVYTREAVKKTWAMGKTDLAHRYGLIMAEIEG
Consider B3, for which the “beta-etherase activity … (in words)” value in data set [1] was “beta-etherase activity”.

B4: LigF: Sphingomonas paucimobilis beta-etherase LigF, positive control polypeptide (protein)
chain: MTLKLYSFGPGANSLKPLATLYEKGLEFEQVFVDPSKFEQHSDWFKKINPRGQVPALWHDGKVVTESTVICEYLEDVFPESGNSLRPADPFKRAEMRVWTKWVDEYFCWCVSTIGWAFGIKAIAQKMSDEEFEEHINKNVPIPEQQLKWRRARNGFPQEMLDEEFRKVGVSVARLEETLSKQDYLVDTGYSLADICNFAIANGLQRPGGFFGDYVNQEKTPGLCAWLDRINARPAIKEMFEKSKREDLLKRQNEKVA
For B4, the “total activity (beta-etherase)” value in data set [1] turned out to be 558 rfu/ug.

B5: ligE1: Novosphingobium aromaticivorans putative beta-etherase, glutathione S-transferase-like polypeptide, GenBank ABD26841.1, expressed in E. coli (protein)
chain: MAANNTITFYDLALSTGATISPFVWATKYALKHKGFDLDVVPGGFTGILERTGGKTERLPAIVDDGEFVLDSWGIVEYLDAKYPDRPVLIPHESVAATLKALDNWFWNAAVGPWMFCFCQDYRDLSLPQDHEYVTHSREKMLGRKLEEVQAGREERLPKISAALEPLRAALAQHQWLGGSSPNYADYRIMGGILFTASVCKTPVLANDDPLRDWIERCLDLYGGLGRHPGLFPLFGLEQREGDPDLFNRAAGQGGIYKRNTGPESTRAETQRITEGMKK
Turning to B5, in data set [1], the “total activity (beta-etherase)” value was determined as 529 rfu/ug and the “beta-etherase activity … (in words)” value is listed as “beta-etherase activity”. For the same molecule, in data set [1] (MUAV substrate, compared with S. paucimobilis ligE), the “efficiency relative to S. paucimobilis ligE beta-etherase” value is given as “approximately 75 fold”.

B6: ligE: Sphingomonas paucimobilis beta-etherase LigE, positive control polypeptide (protein)
chain: MARNNTITLYDLQLESGCTISPYVWRTKYALKHKGFDIDIVPGGFTGILERTGGRSERVPVIVDDGEWVLDSWVIAEYLDEKYPDRPMLFEGPTQKNLMKFLDNWLWSTAVGPWFRCYILDYHDLSLPQDRDYVRWSREQWFLGGQRLEDVQAGREDRLPLVPPTLEPFRRILAETKWLGGDQPNFADYSALAVFLWTASVARTPPLTEDDPLRDWLDRGFDLFDGLGRHPGMNPLFGLKLREGDPEPFVRQTGPAGAGGQALNKGPQTTKMPPRVAEKAD
Consider B6, for which the “total activity (beta-etherase)” value in data set [1] is recorded as 7 rfu/ug.
